Source: PubChem BioAssay AID1918935 (Molecular Pharmacology Branch, DTP, NCI, 2023)

Tested on: 324938-238-R-J1-PDC complex spheroid viability
Assay: Anticancer human tumor 324938-238-R-J1-PDC patient-derived bladder carcinoma cell line growth inhibition
Conditions: for IC50: curve of first compound; for viability, T/C: stronger effect = lower value
Summary of the method: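 Drug combinations with the LSD1 inhibitor iadademstat tested on tumor cells co-cultured as spheroids with endothelial cells and mesenchymal stem cells. Concentrations descended in half-log increments from clinical Cmax or 10 microM.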

[1] = second compound 0.1 µM, first compound 0.00949 µM
[2] = second compound 0.1 µM, first compound 0.03 µM
[3] = second compound 0.1 µM, first compound 0.0949 µM
[4] = second compound 0.1 µM, first compound 0.3 µM
[5] = second compound 0.1 µM, first compound 0.949 µM
[6] = second compound 0.1 µM, first compound 3 µM
[7] = second compound 0.316 µM, first compound 0.00949 µM
[8] = second compound 0.316 µM, first compound 0.03 µM
[9] = second compound 0.316 µM, first compound 0.0949 µM
[10] = second compound 0.316 µM, first compound 0.3 µM
[11] = second compound 0.316 µM, first compound 0.949 µM
[12] = second compound 0.316 µM, first compound 3 µM
[13] = second compound 1 µM, first compound 0.00949 µM
[14] = second compound 1 µM, first compound 0.03 µM
[15] = second compound 1 µM, first compound 0.0949 µM
[16] = second compound 1 µM, first compound 0.3 µM
[17] = second compound 1 µM, first compound 0.949 µM
[18] = second compound 1 µM, first compound 3 µM
[19] = second compound 3.16 µM, first compound 0.00949 µM
[20] = second compound 3.16 µM, first compound 0.03 µM
[21] = second compound 3.16 µM, first compound 0.0949 µM
[22] = second compound 3.16 µM, first compound 0.3 µM
[23] = second compound 3.16 µM, first compound 0.949 µM
[24] = second compound 3.16 µM, first compound 3 µM
[25] = second compound 10 µM, first compound 0.00949 µM
[26] = second compound 10 µM, first compound 0.03 µM
[27] = second compound 10 µM, first compound 0.0949 µM
[28] = second compound 10 µM, first compound 0.3 µM
[29] = second compound 10 µM, first compound 0.949 µM
[30] = second compound 10 µM, first compound 3 µM
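Also: spheroids also contain HUVEC and human MSCs and agents combined with iadademstat; spheroids exposed to agents for 7 days before readout.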

Work on `Cn1ncnc1C1c2n[nH]c(=O)c3cc(F)cc(c23)NC1c1ccc(F)cc1` (stereo not given) + NC1CC1c1ccc(-c2cccc(O)c2)cc1 yielded an IC50 (second compound 0.1 µM) of 37.8 nM, an IC50 (second compound 0.316 µM) of 52.3 nM and an IC50 (second compound 1 µM) of 46.1 nM. It also gave an IC50 (second compound 3.16 µM) of 59.6 nM, an IC50 (second compound 10 µM) of 59.8 nM and a viability, T/C (second compound 0.1 µM, first compound 0.000316 µM) of 82.2%. For the same compound, the viability, T/C (second compound 0.1 µM, first compound 0.001 µM) was 91%, the viability, T/C (second compound 0.1 µM, first compound 0.00316 µM) was 78.1% and the viability, T/C (second compound 0.1 µM, first compound 0.01 µM) was 76.7%. It also gave a viability, T/C (second compound 0.1 µM, first compound 0.0316 µM) of 50.8%, a viability, T/C (second compound 0.1 µM, first compound 0.1 µM) of 43.1% and a viability, T/C (second compound 0.316 µM, first compound 0.000316 µM) of 88.3%. It also gave a viability, T/C (second compound 0.316 µM, first compound 0.001 µM) of 65.7%, a viability, T/C (second compound 0.316 µM, first compound 0.00316 µM) of 69.3% and a viability, T/C (second compound 0.316 µM, first compound 0.01 µM) of 61.9%. The viability, T/C (second compound 0.316 µM, first compound 0.0316 µM) was 50%, the viability, T/C (second compound 0.316 µM, first compound 0.1 µM) was 47% and the viability, T/C (second compound 1 µM, first compound 0.000316 µM) was 70%. The viability, T/C (second compound 1 µM, first compound 0.001 µM) was 71.1%, the viability, T/C (second compound 1 µM, first compound 0.00316 µM) was 66.4% and the viability, T/C (second compound 1 µM, first compound 0.01 µM) was 62.3%. For the same compound, the viability, T/C (second compound 1 µM, first compound 0.0316 µM) was 53.8%, the viability, T/C (second compound 1 µM, first compound 0.1 µM) was 41.8% and the viability, T/C (second compound 3.16 µM, first compound 0.000316 µM) was 76.1%. The viability, T/C (second compound 3.16 µM, first compound 0.001 µM) was 73.1%, the viability, T/C (second compound 3.16 µM, first compound 0.00316 µM) was 63.9% and the viability, T/C (second compound 3.16 µM, first compound 0.01 µM) was 63.1%. The viability, T/C (second compound 3.16 µM, first compound 0.0316 µM) was 48.6%, the viability, T/C (second compound 3.16 µM, first compound 0.1 µM) was 49.2% and the viability, T/C (second compound 10 µM, first compound 0.000316 µM) was 64.1%. The viability, T/C (second compound 10 µM, first compound 0.001 µM) was 68%, the viability, T/C (second compound 10 µM, first compound 0.00316 µM) was 64% and the viability, T/C (second compound 10 µM, first compound 0.01 µM) was 60.4%. For the same compound, the viability, T/C (second compound 10 µM, first compound 0.0316 µM) was 47% and the viability, T/C (second compound 10 µM, first compound 0.1 µM) was 50%.
With `NS(=O)(=O)OCC1CC(n2ccc3c(NC4CCc5ccccc54)ncnc32)CC1O` (stereo not given) + NC1CC1c1ccc(-c2cccc(O)c2)cc1 the IC50 (second compound 0.1 µM) was 327 nM, the IC50 (second compound 0.316 µM) was 230 nM and the IC50 (second compound 1 µM) was 299 nM. The IC50 (second compound 3.16 µM) was 300 nM, the IC50 (second compound 10 µM) was 334 nM and the viability, T/C [1] was 97.7%. It also gave a viability, T/C [2] of 101%, a viability, T/C [3] of 95.1% and a viability, T/C [4] of 53.2%. The viability, T/C [5] was 12.4%, the viability, T/C [6] was 12% and the viability, T/C [7] was 84.6%. For the same compound, the viability, T/C [8] was 84.8%, the viability, T/C [9] was 76% and the viability, T/C [10] was 42.7%. For the same compound, the viability, T/C [11] was 12.5%, the viability, T/C [12] was 11.9% and the viability, T/C [13] was 95.6%. For the same compound, the viability, T/C [14] was 77.8%, the viability, T/C [15] was 84.8% and the viability, T/C [16] was 49.9%. It also gave a viability, T/C [17] of 11.3%, a viability, T/C [18] of 9.03% and a viability, T/C [19] of 88.9%. It also gave a viability, T/C [20] of 93.6%, a viability, T/C [21] of 86.4% and a viability, T/C [22] of 50.3%. For the same compound, the viability, T/C [23] was 12.2%, the viability, T/C [24] was 9.8% and the viability, T/C [25] was 74.8%. The viability, T/C [26] was 86.4%, the viability, T/C [27] was 80.1% and the viability, T/C [28] was 52.6%. It also gave a viability, T/C [29] of 19.7% and a viability, T/C [30] of 12.4%.
`O=C(C=Cc1cccc(S(=O)(=O)Nc2ccccc2)c1)NO` + NC1CC1c1ccc(-c2cccc(O)c2)cc1 showed an IC50 (second compound 0.1 µM) of 160 nM, an IC50 (second compound 0.316 µM) of 111 nM and an IC50 (second compound 1 µM) of 87.4 nM. The IC50 (second compound 3.16 µM) was 106 nM, the IC50 (second compound 10 µM) was 29.5 nM and the viability, T/C [1] was 84.3%. It also gave a viability, T/C [2] of 75.3%, a viability, T/C [3] of 59.1% and a viability, T/C [4] of 36.2%. It also gave a viability, T/C [5] of 24.5%, a viability, T/C [6] of 3.13% and a viability, T/C [7] of 69%. It also gave a viability, T/C [8] of 64.2%, a viability, T/C [9] of 52.6% and a viability, T/C [10] of 34.6%. The viability, T/C [11] was 21.9%, the viability, T/C [12] was 2.23% and the viability, T/C [13] was 62.6%. The viability, T/C [14] was 55.4%, the viability, T/C [15] was 50.5% and the viability, T/C [16] was 37.2%. The viability, T/C [17] was 20.1%, the viability, T/C [18] was 1.65% and the viability, T/C [19] was 64.2%. For the same compound, the viability, T/C [20] was 65.9%, the viability, T/C [21] was 50% and the viability, T/C [22] was 34.4%. The viability, T/C [23] was 23.6%, the viability, T/C [24] was 1.52% and the viability, T/C [25] was 57.7%. The viability, T/C [26] was 47.1%, the viability, T/C [27] was 40.1% and the viability, T/C [28] was 34.9%. The viability, T/C [29] was 24.6% and the viability, T/C [30] was 2.48%.
